The numbers were not newly measured in patent EP1249231B1, “Pharmaceutical formulations comprising anti-inflammatory compounds and use thereof” (VESIFACT AG, priority 2001, dated 2002), which cites them from elsewhere.

SMILES strings stand for the structures.

The conditions of the data set: free acid; background statement.

As to `CC(C)Cc1ccc(C(C)C(=O)O)cc1` (stereo not shown) [Ibuprofen], the “Löslichkeit in Wasser und im sauren Milieu des Magensaftes” value is reported as “schlecht löslich”.
